Converted amounts (≈) assume the structure as drawn.
Legend:
[1] = test system: Staphylococcus aureus; experiment: Skin wound infection model in mice, topical ointment (Example 5); assay type: in vivo; settings: LP1369 ointment 20 mg/g, 11 treatments
Text: Preliminary studies prior to the conduct to the current study established a new method of skin infection arising from a detailed study of the models mentioned above. Briefly, study mice are anaesthetised, a patch of dorsal skin is clipped to reveal the skin and a circular area of skin is removed with a hand held punch, leaving a wound on the dorsum with a central cavity. The wound is infected with a known number of the challenge organism. Approximately four to six hours after infection, the wound is either treated topically with a vehicle formulation or an active formulation. The infected skin wound is retreated every 12 hours for a total of 11 treatments. Mice are humanely euthanased, the area of the original infected wound is dissected and removed and its bacterial content quantified by standard microbiologic tests. In this way, the change in bacterial concentration due to treatment with the active formulation can be readily determined by examining the reduction in bacterial burden compared with the vehicle control.
Fresh cultures of bacteria were grown on Sheep Blood Agar at 37° C. for 16-18 hours. […] The density of the suspension was checked by measuring absorbance at 600 nm, using a spectrophotometer with saline as a blank, to confirm the target density at a reading of approximately 0.100, consistent with a bacterial density of 2.5×10^8 CFU/ml. […]

[2] = test system: ATCC 49775 reference strain; experiment: Microdilution time-kill assay (optical density); settings: 48 hour period; one, four and eight times the MIC
Protocol: Time-kill assays were performed according to the M26-A guidelines of the CLSI, with modifications. The test compounds and ampicillin were serial diluted in CAMHB across the rows of a 96 well plate and a bacterial suspension was prepared and added in the same manner as the MIC testing. The 96 well plates were then incubated at 37° C. for 48 hours being removed at specific time points and OD for the positive control wells as well as one, four and eight times the MIC of the compound specific to the strain being tested were assessed using a spectrophotometer at a wavelength of 600 nm. The time points assessed were 0, 1, 2, 4, 8, 12, 24 and 48 hours after the addition of the bacterial suspension to the wells. Each test compound was tested in triplicate while ampicillin was tested in duplicate and this test was independently repeated. […] One strain from each of the categories of Staphylococcus in the isolate collection (methicillin-sensitive, methicillin resistant and coagulase negative) were selected as well as the ATCC reference strain for comparison. These strains were strains MSS 1, MSS 11, MRSA 9 and the ATCC 49775 reference strain.

[3] = test system: 51 Australian bovine mastitis isolates, primarily S. aureus, S. agalactiae and S. uberis; experiment: Minimum inhibitory concentration assay, bovine mastitis isolates (Example 3); assay type: cell-based; settings: all 51 isolates; read-out: MIC90
Text: Fifty-one dairy bovine mastitis isolates, encompassing a variety of bacterial species, were isolated from milk samples collected from dairy farms in rural South Australia by the University of Adelaide Ambulatory Clinic. Cellular morphology observed from Gram stains and catalase testing was used to differentiate Staphylococcus, Streptococcus and Corynebacterium species from Gram-negative species. Further biochemical testing including coagulase, Lancefield grouping, esculin hydrolysis and CAMP tests were used to identify the isolates to species level. Where biochemical test results were not definitive in identifying species, amplification and sequencing of the 16S ribosomal RNA gene was used to confirm the identity of the isolates.
Minimum inhibitory concentration tests were performed in the manner outlined by the CLSI (CLSI 2012). Test compounds were dispensed into a 96-well microtitre tray containing 90 μl of CAMHB in 90 μl volumes and serial diluted to obtain a concentration gradient ranging from 128 μg/ml to 0.25 μg/ml (see FIG. 24). For Streptococcus species, CAMHB was replaced with a CAMHB supplement with 4% lysed-sheep blood (4% LSB:CAMHB). 4% LSB:CAMHB was prepared by mixing 5 ml sheep blood to 5 ml milliQ water, and repeated freezing at −20° C. and thawing, followed by centrifuged for 20 min at 7000 rpm. 7 ml of the supernatant was removed and added to 93 mL of CAMB.
Bacterial suspensions were prepared by emulsifying fresh colonies obtained from an overnight culture on Sheep Blood Agar (SBA) in 4 mls of 9.1 g/l physiological saline to an optical density read at 600 nm (OD600 nm) between 1.00 and 1.20. Standardised bacterial suspensions were diluted 1:10 in physiological saline and dispensed into all wells, excluding the negative control wells, in 10 μL volumes giving a final concentration of between 4×10^5 and 5×10^5 CFU/mL in each well. 96-well microtitre trays were incubated for 24 hours at 37° C. in 5% CO2 and then assessed both visually and using OD readings from a microplate reader at a wavelength of 600 nm. These tests were performed in duplicate and repeated if discrepancies in MIC values were observed between replicates.
The minimum inhibitory concentration (MIC) was determined to be the lowest concentration of antibiotic that prevented growth of bacteria both visually and using OD readings. MIC values were collated and used to determine the lowest concentration of each compound effective against 50% and 90% of isolates, known as the MIC50 and MIC90 respectively. These values as well as the range of MIC values were then used for direct comparisons between test compounds and for general comparisons with ampicillin.

SMILES: CC[C@@H](C(=O)[C@@H](C)[C@@H](O)[C@H](C)CCc1ccc(C)c(O)c1C(=O)O)[C@H]1O[C@](CC)([C@H]2CC[C@](O)(CC)[C@H](C)O2)C[C@@H]1C [LP 1369, Lasalocid]
- decrease in bacterial load compared to vehicle control mice [1]: statistically significant
- reduction of the bacterial population ([1]; every 12 hours, versus vehicle): greater than 99%
- growth (optical density) compared to growth control [2]: prevented the growth
- MIC90 [3]: 4 µg/mL (≈ 6.77 µM)

Source: patent publication US9943500B2, “Methods of treating topical microbial infections” (LUODA PHARMA PTY LIMITED, priority 2013, dated 2018)
